Assay results taken from patent publication US20240245693A1, “COMPOSITIONS AND METHODS OF TISSUE REGENERATION THERAPY” (The Regents of the University of California, priority 2021, published 2024).
“Also recorded” adds a separate entry of the source.

Key:
[1] = test system: mouse splinted skin wound; test: mouse excisional splinted skin wound healing model, topical application; assay type: in vivo; conditions: daily topical application at 5 micromolar in 10% DMSO vehicle; FIG. 5
Text: FIGS. 1A-1B show wound healing in mouse excisional skin wound splinting model, wherein a splinting ring is tightly adhered to the skin around the wound, thereby preventing local skin contraction. The wound is thus healed through a process of granulation and re-epithelialization similar to that occurring in human. The figures present a time course healing of skin splinted wound in wild type (WT) (FIG. 1A) and Npas2 KO mice (FIG. 1B).
Skin of experimental animals such as mice are similarly composed of multiple tissues; however excisional wound heals faster in part due to active wound contraction. Therefore, mouse wound healing model employs a silicone stent around the excisional skin, which prevents contraction allowing the healing through re-epithelialization and granulation tissue formation. The mouse splinted skin wound model has provided a common experimental platform, which allows investigation of critical molecules for skin wound healing using genetically manipulated mice. Knockout mutation of wound inflammation related molecules such as Sphingosine kinase-1 or mast cell proteases was reported to delay the wound closure and the proliferative phase of healing, respectively.
High throughput screening (HTS) of well-defined chemical compounds was performed using Npas2-LacZ reporter mouse skin fibroblasts. […]

human dermal fibroblasts = test: in vitro collagen synthesis assay using human dermal fibroblasts; assay type: cell-based
Protocol: Without serotonin (5-HT) supplementation, the majority of selected compounds maintained fibroblastic collagen synthesis.
(§1) High throughput screening (HTS) of well-defined chemical compounds was performed using Npas2-LacZ reporter mouse skin fibroblasts. Chemical genomics analysis of hit compounds indicated the involvement of monoamine-related pathways for regulating Npas2 expression. To identify the regulatory mechanism of Npas2 in human dermal fibroblasts, a library of lentivirus expression vectors containing human monoamine-related genes was selected for over-expression study.

Npas2 = Npas2 expression in human dermal fibroblasts; assay type: cell-based; conditions: serotonin supplementation; FIG. 9F
Protocol: FIGS. 9A-9G show the effect of HTR1B and HTR2B on human dermal fibroblasts.
as §1

[2] = test system: human periodontal ligament MSC (PDLSC); test: in vitro osteogenic differentiation assay using human periodontal ligament stem cells (PDLSC); assay type: cell-based; conditions: supplementation of compound; FIG. 8

| Compound | wound closure and skin tissue regeneration [1] | in vitro collagen synthesis of human dermal fibroblasts (human dermal fibroblasts; serotonin supplementation, FIG. 9E) | Npas2 expression of human dermal fibroblasts (Npas2) | fibroblastic collagen synthesis (human dermal fibroblasts; in the presence of 10 μM 5-HT supplementation, FIG. 4) | osteogenic differentiation of PDLSC [2] |
| --- | --- | --- | --- | --- | --- |
| CN1CCC(=C2c3ccccc3C=Cc3ccccc32)CC1 [Cyproheptadine, 1-methyl-4-(2-tricyclo[9.4.0.03,8]pentadeca-1(15),3,5,7,9,11,13-heptaenylidene)piperidine] | significant wound closure and skin tissue regeneration | – | – | – | – |
| NCCc1c[nH]c2ccc(O)cc12 [serotonin] | – | decreased | increased | – | – |
| N#Cc1cc(CN2CCC(Nc3ncnc4sc(Cl)cc34)CC2)ccc1F [PRX-08066, 5-[[4-[(6-chlorothieno[2,3-d]pyrimidin-4-yl)amino]piperidin-1-yl]methyl]-2-fluorobenzonitrile] | significant wound closure and skin tissue regeneration | – | – | high level of collagen synthesis | effective compound; also recorded: enhanced the differentiation of PDLSC |
